Measurements taken from article PMC8533986, “[^99mTc]Tc-DB15 in GRPR-Targeted Tumor Imaging with SPECT: From Preclinical Evaluation to the First Clinical Outcomes” (Cancers, 2021).

Tests used:
human GRPR = target: T1, human GRPR (Homo sapiens, UniProt P30550); assay: Competition binding assay, displacement of [125I]I-[Tyr4]BBN from PC-3 cell membranes; conditions: PC-3 cell membrane homogenates, 1 h at 22 °C, pH 7.4, mean ± SD of three experiments in triplicate, read-out: IC50, binding affinity for the human GRPR
T1 construct: displacement of the [^125I]I-[Tyr^4]BBN radioligand from freshly harvested PC-3 cell membranes; host or cells: PC-3 human prostate adenocarcinoma cells (membrane homogenate)
Method: 2.4. Competition Binding Assays in PC-3 Cell-Membranes
Rapid filtration through glass fiber filters (Whatman GF/B, presoaked in binding buffer for at least 1 h) on a Brandel Cell Harvester (Adi Hassel Ingenieur Büro, Munich, Germany) and rinsing with ice-cold washing buffer (10 mM HEPES pH 7.4, 150 mM NaCl) followed. Filter radioactivity was measured in a gamma counter (automated multi-sample well-type instrument with a NaI(Tl) 3” crystal, Canberra Packard Cobra^TM Quantum U5003/1, Auto-Gamma® counting system). […] Values are expressed as mean ± standard deviation (SD) of three experiments performed in triplicate.

BC patients = conditions: two advanced BC patients, imaging 15 min-24 h pi
Method: Two BC patients were tested for the potential of pathological lesion detection after injection of [^99mTc]Tc-DB15.
A single dose of [^99mTc]Tc-DB15 (5-mL, 700–800 MBq corresponding to 20 μg DB15) was administered as a slow intravenous (iv) injection over 1 min. Vital signs (pulse rate, systolic and diastolic BP) were measured prior to the injection of [^99mTc]DB15 as well as within 15 min pi. Likewise, ECGs were performed prior to the injection, continuously during the injection and for 15 min pi. ECG and vital signs were measured again after the last scan was completed and blood tests for hematology and biochemistry (glucose, creatinine, bilirubin, transaminases, sodium, potassium, calcium) were performed. The laboratory evaluation was repeated 7, 14 and 28 days after imaging. Adverse events (AEs) were assessed and graded according to National Cancer Institute Common Toxicity Criteria for Adverse Events (CTCAE) Version 3.0.
Gamma camera imaging was performed on a Symbia Intevo Bold dual-head SPECT/CT scanner (Siemens Healthineers AG; Erlangen, Germany) equipped with a 16-slice CT scanner. Planar imaging of the whole body and SPECT/CT images of the thorax were obtained 15 min, 1 h, 3 h, and 24 h pi. Planar and SPECT/CT images were inspected for increased uptake by two experienced nuclear medicine specialists.

PC-3 cells = assay: Time-dependent uptake of [99mTc]Tc-DB15 in PC-3 cells; format: cell-based, human
Method: (§1) 2.5. Time-Dependent Uptake of [^99mTc]Tc-DB15 in PC-3 and T-47D Cells
(§2) One day before the experiment, PC-3 or T-47D cells were seeded in 6-well plates (≈1 × 10^6 cells per well). Next day, the cells were rinsed with ice-cold internalization medium (IM, RPMI-1640 GlutaMAX-I, supplemented by 1% (v/v) FBS). […] [^99mTc]Tc-DB15 (250 fmol total peptide in 150 µL 0.5% BSA-PBS) was added in all wells and the plates were incubated at for 15 min, 30 min, 1 h and 2 h at 37 °C in an Incubator-Orbital Shaker unit (MPM Instr. SrI, Bernareggio, MI, Italy). Cells were then placed on ice, the medium was collected, and the plates were rinsed with 0.5% BSA-PBS (1 mL). Membrane-bound fractions were collected after treatment in acid-wash solution (2 × 600 µL; 50 mM glycine buffer pH 2.8, 0.1 M NaCl). Internalized fractions were collected after treatment with 1 N NaOH (2 × 600 µL), as previously described. After counting of radioactivity of all collected fractions in the gamma counter, the percentage of specific internalized and membrane-bound fractions per time point were calculated with Microsoft Excel and the respective curves were drawn. Specific internalized and membrane-bound counts were determined by subtracting the respective non-specific from the respective total counts. Results represent specific internalized ±SD of total added radioactivity per well from three experiments performed in triplicate.

T-47D cells = assay: Time-dependent uptake of [99mTc]Tc-DB15 in T-47D cells; format: cell-based, human
Method: as §1, §2

[1] = 30 min incubation, 37 °C, 250 fmol total peptide, mean ± SD, three experiments in triplicate
[2] = all time points (15 min-2 h), results not shown

T1 sequence (P30550 whole entry): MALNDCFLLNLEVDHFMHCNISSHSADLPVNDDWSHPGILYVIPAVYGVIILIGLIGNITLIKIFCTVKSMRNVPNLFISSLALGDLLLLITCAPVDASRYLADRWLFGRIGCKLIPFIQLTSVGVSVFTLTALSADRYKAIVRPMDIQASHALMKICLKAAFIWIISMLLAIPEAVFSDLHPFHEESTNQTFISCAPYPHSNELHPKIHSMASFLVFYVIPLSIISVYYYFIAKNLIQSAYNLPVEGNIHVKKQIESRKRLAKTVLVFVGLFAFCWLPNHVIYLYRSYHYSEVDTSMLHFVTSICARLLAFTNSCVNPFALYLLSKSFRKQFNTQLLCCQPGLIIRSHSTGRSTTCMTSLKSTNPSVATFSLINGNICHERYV

| Molecule | IC50 (human GRPR) [nM] | Pathological findings on planar and SPECT/CT images (BC patients) | portion found within the cells (internalized) (PC-3 cells; 37 °C) [%] | specific cell uptake (cell-associated fraction of total added activity) (PC-3 cells; [1]) [%] | cell association in the presence of 1 μM [Tyr4]BBN (PC-3 cells; [2]) [%] | portion found within the cells (internalized) (T-47D cells; 37 °C) [%] | specific cell uptake (cell-associated fraction of total added activity) (T-47D cells; [1]) [%] | cell association in the presence of 1 μM [Tyr4]BBN (T-47D cells; [2]) [%] |
| --- | --- | --- | --- | --- | --- | --- | --- | --- |
| CCNC(=O)[C@H](CC(C)C)NC(=O)[C@H](Cc1c[nH]cn1)NC(=O)CN(C)C(=O)[C@@H](NC(=O)[C@H](C)NC(=O)[C@H](Cc1c[nH]c2ccccc12)NC(=O)[C@H](CCC(N)=O)NC(=O)[C@@H](Cc1ccccc1)NC(=O)COCC(=O)Nc1ccc(CNC(=O)C(CNCCN)CNCCN)cc1)C(C)C [DB15, N4-AMA-DGA-DPhe^6,Sar^11,LeuNHEt^13]BBN(6-13)] | 0.37 ± 0.03 |  |  |  |  |  |  |  |
| [^99mTc]Tc-N4-AMA-DGA-DPhe^6,Sar^11,LeuNHEt^13]BBN(6-13) [[^99mTc]Tc-DB15] |  | increased uptake of [^99mTc]Tc-DB15 in the BC metastases in both patients | < 6 | 13.1 ± 0.1 | < 0.9 | < 6 | 24.2 ± 0.7 | < 0.9 |
